Test [1] deals with Plasmodium cynomolgi Berok K4 asexual blood stage. Put plainly: EC50 asexual blood stage growth. The method, then: (§1)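 The Reference Compound Library was tested by 10-point 3-fold dose response against P. cynomolgi Berok K4 asexual blood stages (SYBR proliferation assay, mefloquine background control). Culture medium contained 0.5% AlbuMAX or 20% M. fascicularis serum. P. falciparum 3D7 was tested in a 72-h SYBR Green assay with 0.5% AlbuMAX. Values are geometric mean EC50 over independent experiments; 10 uM is the top dose.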

For test [2], the system named is Plasmodium falciparum 3D7 asexual blood stage. Briefly: EC50 asexual blood stage growth. Particulars: serum: 0.5% AlbuMAX. The method, then: as §1
Test [3] deals with Plasmodium vivax liver stage (primary human hepatocyte culture). The method, then:
(§2)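 Dose-response of P. vivax liver stages in primary human hepatocytes, with 8 points (10 uM-[…], v1) or 12 points in duplicate (50 uM-280 pM, v2). Read-out is high-content imaging of schizont net growth area, hypnozoite quantity and hepatic nuclei. EC50 and CC20 (20% nuclei loss) were fitted in CDD Vault from the highest-quality independent experiment; toxic-dose bell-shaped points were masked. '>' marks the highest concentration with less than 50% activity, and ND means a non-sigmoidal curve.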

Test [4] deals with primary human hepatocytes. Briefly: CC20 hepatic nuclei (20% reduction); higher = less toxic. The method, then: as §2
The subject of test [5] is Plasmodium vivax liver stage (primary human hepatocyte culture). Briefly: maximum inhibition of schizont net growth area; higher = more active. The method, then:
as §2

Where [6] appears, read: serum: 20% M. fascicularis serum.
The mark [7] stands for this setting: P. vivax isolate: Pv914, hepatocyte lot: BGW, assay mode: Prophylactic, 6-day.
[8] abbreviates: P. vivax isolate: Pv772, hepatocyte lot: BGW, assay mode: Prophylactic, 6-day.
Where [9] appears, read: P. vivax isolate: IVS17-02, hepatocyte lot: PDC, assay mode: Radical Cure, 8-day (treatment from day 5 post-infection).
Setting [10] is: P. vivax isolate: Pv360, hepatocyte lot: UBV, assay mode: Prophylactic, 6-day.
Setting [11] is: P. vivax isolate: Pv357, hepatocyte lot: UBV, assay mode: Radical Cure, 8-day (treatment from day 5 post-infection).
[12] abbreviates: P. vivax isolate: Pv458, hepatocyte lot: UBV, assay mode: Radical Cure, 8-day (treatment from day 5 post-infection).
The mark [13] stands for this setting: P. vivax isolate: Pv914, hepatocyte lot: BGW, assay mode: Radical Cure, 8-day (treatment from day 5 post-infection).
[14] abbreviates: P. vivax isolate: Pv836, hepatocyte lot: BGW, assay mode: Radical Cure, 8-day (treatment from day 5 post-infection).

Where a name gives a salt, the structure may show the parent alone.

On to `CC(C)(C)NCc1cc(Nc2ccnc3cc(Cl)ccc23)ccc1F`, for which the “EC50 asexual blood stage growth” value in test [1] (serum: 0.5% AlbuMAX) came to 0.0774 µM; in test [1] (setting [6]), 0.0388 µM; in test [2], 0.0098 µM.
As to `CC(C)(C)NCc1cc(C(C)(C)C)cc(-c2ccc(Cl)cc2)c1O`, the “EC50 asexual blood stage growth” value in test [1] (serum: 0.5% AlbuMAX) was determined as 0.002 µM; in test [1] (setting [6]) it was 0.0068 µM; in test [2], 0.0141 µM.
The matching figures for `Cc1nn(C)c(NC(=O)Cn2c(C(C)C)nc3ccccc32)c1-c1ccc(Cl)cc1F` [21A092]: 0.007 µM, 0.0794 µM and 0.0148 µM.
For the compound `Cc1c(Oc2cnc(C(=O)N3CC(C)(O)C3)cn2)ccc2c1B(O)OC2` [AN762], the entries for the “EC50 asexual blood stage growth” value in test [1] (serum: 0.5% AlbuMAX), in test [1] (setting [6]) and in test [2] were 1.75 µM, 2.2 µM and 0.101 µM, respectively.
The like results for `Cc1c(CCO)sc[n+]1CCCCCCCCCCCC[n+]1csc(CCO)c1C` [Albitiazolium] were, in that order, 0.367 µM, 0.144 µM and 0.0144 µM.
The matching figures for `c1cc(C2CCC3(CC2)OOC2(O3)C3CC4CC(C3)CC2C4)ccc1OCCN1CCOCC1` (stereo not drawn) [Artefenomel]: 0.0034 µM, 0.0023 µM and 0.0424 µM.
The matching figures for `CC1CCC2C(C)C(=O)OC3OC4(C)CCC1C32OO4` (stereo not drawn) [Artemisinin]: 0.0073 µM, 0.0094 µM and 0.0948 µM.
Consider `CC1CCC2C(C)C(N3CCS(=O)(=O)CC3)OC3OC4(C)CCC1C32OO4` (stereo not drawn) [Artemisone], for which the “EC50 asexual blood stage growth” value in test [1] (serum: 0.5% AlbuMAX) amounted to 0.001 µM; in test [1] (setting [6]) it was 0.0006 µM; in test [2], 0.005 µM.
The matching figures for `CC1CCC2C(C)C(O)OC3OC4(C)CCC1C32OO4` (stereo not drawn) [Artenimol]: 0.0006 µM, 0.0005 µM and 0.0065 µM.
The matching figures for `CC(C)(N)CNC(=O)CC1CCC2(CC1)OOC1(O2)C2CC3CC(C2)CC1C3` (stereo not drawn) [Arterolane]: 0.0014 µM, 0.001 µM and 0.0078 µM.
The like results for `CC1CCC2C(C)C(OC(=O)CCC(=O)O)OC3OC4(C)CCC1C32OO4` (stereo not drawn) [Artesunate] were, in that order, 0.0062 µM, 0.003 µM and 0.0413 µM.
In the case of `O=C1C(O)=C([C@H]2CC[C@H](c3ccc(Cl)cc3)CC2)C(=O)c2ccccc21` [Atovaquone], the results for the “EC50 asexual blood stage growth” value in test [1] (serum: 0.5% AlbuMAX), in test [1] (setting [6]) and in test [2] were 0.001 µM, 0.0017 µM and 0.0009 µM, respectively.
The matching figures for `CCN(CC)CCCC(C)Nc1ccnc2cc(Cl)ccc12` (stereo not drawn) [Chloroquine]: 0.183 µM, 0.0328 µM and 0.0822 µM.
The matching figures for `CC1Cc2c([nH]c3cc(Cl)c(F)cc23)C2(N1)C(=O)Nc1ccc(Cl)cc12` (stereo not drawn) [Cipargamin]: 0.0033 µM, 0.0154 µM and 0.0014 µM.
The matching figures for `CC1CCCC(CC2Cc3cc(O)cc(O)c3C(=O)O2)O1` (stereo not drawn) [Cladosporin]: 0.124 µM, 1.43 µM and 0.0758 µM.
With `CCC[C@@H]1C[C@@H](C(=O)N[C@@H]([C@H]2O[C@H](SC)[C@H](O)[C@@H](O)[C@H]2O)[C@H](C)Cl)N(C)C1` [Clindamycin], the “EC50 asexual blood stage growth” value in test [1] (serum: 0.5% AlbuMAX) is above 10 µM; in test [1] (setting [6]) it was 9.21 µM; in test [2], above 10 µM.
Consider `CC1CC(C)C(=O)C(C(O)CC2CC(=O)NC(=O)C2)C1` (stereo not drawn) [Cyclohexamide], for which the results for the “EC50 asexual blood stage growth” value in test [1] (serum: 0.5% AlbuMAX), in test [1] (setting [6]) and in test [2] were 0.0352 µM, 0.0401 µM and 0.282 µM, respectively.
The like results for `Cc1cc(Nc2ccc(C(F)(F)F)nc2)n2nc(C(C)(F)F)nc2n1` [DSM421] were, in that order, 0.0605 µM, 0.0595 µM and 0.0351 µM.
The matching figures for `Nc1ccc(S(=O)(=O)c2ccc(N)cc2)cc1` [Dapsone]: above 10 µM, above 10 µM and above 10 µM.
Regarding `CC(=O)N(O)CCCCCNC(=O)CCC(=O)N(O)CCCCCNC(=O)CCC(=O)N(O)CCCCCN` [Deferoxamine], the “EC50 asexual blood stage growth” value in test [1] (serum: 0.5% AlbuMAX), in test [1] (setting [6]) and in test [2] was above 10 µM in each case.
As to `CC12CCC3C(CC=C4CC(OS(=O)(=O)O)CCC43C)C1CCC2=O` (stereo not drawn) [Dehydroepiandrosterone sulphate], the “EC50 asexual blood stage growth” value in test [1] (serum: 0.5% AlbuMAX), in test [1] (setting [6]) and in test [2] was above 10 µM in each case.
`C[C@H]1c2cccc(O)c2C(=O)C2=C(O)[C@]3(O)C(=O)C(C(N)=O)=C(O)[C@@H](N(C)C)C3[C@@H](O)C21` (stereo partly drawn) [Doxycycline hydrochloride]: in test [3] (setting [7]), the EC50 hypnozoite quantity is above 10 µM and the “EC50 schizont net growth area” value was above 0.37 µM. Moreover, in test [4] (setting [7]), the CC20 hepatic nuclei was above 10 µM. In test [5] (setting [7]), the maximum inhibition was found to be 68.3%.
As to `CCC(C)C1OC2(CCC1C)CC1CC(CC=C(C)C(OC3CC(OC)C(OC4CC(OC)C(O)C(C)O4)C(C)O3)C(C)C=CC=C3COC4C(O)C(C)=CC(C(=O)O1)C34O)O2` (stereo not drawn) [Ivermectin], in test [3] (setting [8]), the EC50 hypnozoite quantity was above 10 µM and the “EC50 schizont net growth area” value is above 3.33 µM. Besides, in test [4] (setting [8]), the CC20 hepatic nuclei is above 10 µM. Also, in test [5] (setting [8]), the maximum inhibition was 69.8%.
Turning to `CC1(C)c2nc(-c3ccc(F)cc3)c(Nc3ccc(F)cc3)n2CCN1C(=O)CN` [KAF156], the EC50 hypnozoite quantity was above 1 µM in test [3] (setting [9]) and 0.0329 µM in test [3] (setting [10]). For the same compound, the “EC50 schizont net growth area” value in test [3] (setting [9]) was 0.33 µM; in test [3] (setting [10]) it was 0.0141 µM. Moreover, the CC20 hepatic nuclei was above 1 µM in test [4] (setting [9]) and above 10 µM in test [4] (setting [10]). Further, the maximum inhibition was determined as 93.2% in test [5] (setting [9]) and 103% in test [5] (setting [10]).
In the case of `CCC(C(=O)C(C)C(O)C(C)CCc1ccc(C)c(O)c1C(=O)[O-])C1OC(CC)(C2CCC(O)(CC)C(C)O2)CC1C.[Na+]` (stereo not drawn) [Lasalocid-A], in test [3] (setting [11]), the EC50 hypnozoite quantity was 1.05 µM and the “EC50 schizont net growth area” value came out at 0.0431 µM. The same compound came in with a CC20 hepatic nuclei in test [4] (setting [11]) above 10 µM. The maximum inhibition in test [5] (setting [11]) was determined as 100%.
`COC1CC(OC2CC(C3OC(C)(O)C(C)CC3C)OC2C2(C)CCC(C3(C)CCC4(CC(O)C(C)C(C(C)C5OC(O)(CC(=O)O)C(C)C(OC)C5OC)O4)O3)O2)OC(C)C1OC.N` (stereo not drawn) [Maduramicin]: in test [3] (setting [12]), the EC50 hypnozoite quantity was determined as 0.0225 µM and the “EC50 schizont net growth area” value is 0.000705 µM. In test [4] (setting [12]), this compound showed a CC20 hepatic nuclei of 2.59 µM. Further, the maximum inhibition in test [5] (setting [12]) is 101%.
The matching figures for `CCC(C(=O)O)C1OC(C(C)C(O)C(C)C(=O)C(CC)C2OC3(C=CC(O)C4(CCC(C)(C5CCC(O)(CC)C(C)O5)O4)O3)C(C)CC2C)C(C)CC1C` (stereo not drawn) [Narasin]: 0.0646 µM, 0.0075 µM, 8.8 µM and 101%.
Consider `N=C(N)c1ccc(OCCCCCOc2ccc(C(=N)N)cc2)cc1` [Pentamidine isethionate], for which the results for the EC50 hypnozoite quantity in test [3] (setting [7]) and in test [3] (setting [13]) were 5.54 µM and above 50 µM, respectively. In addition, the “EC50 schizont net growth area” value in test [3] (setting [7]) worked out at 0.551 µM; in test [3] (setting [13]), 8.39 µM. For the same compound, the figures for the CC20 hepatic nuclei in test [4] (setting [7]) and in test [4] (setting [13]) were 5.54 µM and above 5.56 µM, respectively. The maximum inhibition stood at 99.6% in test [5] (setting [7]) and 94.4% in test [5] (setting [13]).
Regarding `CCC(C(=O)O)C1CCC(C)C(C(C)C(O)C(C)C(=O)C(CC)C2OC3(C=CC(O)C4(CCC(C)(C5CCC(O)(CC)C(C)O5)O4)O3)C(C)CC2C)O1` (stereo not drawn) [Salinomycin], in test [3] (setting [14]), the EC50 hypnozoite quantity worked out at 0.112 µM and the “EC50 schizont net growth area” value was determined as 0.0402 µM. In test [4] (setting [14]), the CC20 hepatic nuclei was above 10 µM. Besides, in test [5] (setting [14]), the maximum inhibition came out at 102%.

These data come from the supplement of paper PMC8497498.
